Data: patent US20230000924A1, “COMPOSITIONS AND METHODS FOR GENERATION OF SINOATRIAL NODE-LIKE CELLS AND THEIR USE IN DRUG DISCOVERY” (Cornell University, priority 2019, published 2023)

Test system: GATA5-induced progenitors
Assay: qRT-PCR-based chemical screen in GATA5-induced murine ESC progenitors
Assay type: cell-based
Text: FIG. 5. Optimization of the protocol for the derivation of SAN-like cells from hPSCs a, Schematic representation of the murine differentiation protocol and qRT-PCR analysis for the expression levels of TBX3, TBX18 and SHOX2 following induction of GATA4, GATA5 or GATA6 at day 4. Fold change was normalized to level using the iGATA6 line; b, Heatmap illustration of the qPCR results of transcription-screen for TBX3, TBX18 and SHOX2; hit compounds (EGF inhibitors) from plates 1 and 3 are circled. c, The activity of tyrphostin AG490 and 2NP on the expression of TBX3, TBX18 and SHOX2; d, The activity of cucurbitacin (STAT3 inhibitor) on expression of MYH6; e, qRT-PCR analysis for TBX3, TBX18 and SHOX2 in S1+RA (left) and S1+cucurbitacin (right); f, The percentage of SHOX2:GFP^+ cells treated with different EGF inhibitors (left) and dose-response curve for effects of Tyrphostin AG490 on the percentage of SHOX2:GFP^+ cells. Fold changes were normalized to DMSO-treated group unless stated otherwise.
We developed a protocol that maximizes the generation of pluripotent stem cell-derived SAN pacemaker lineages (PSC-SAN). […] We therefore applied GATA5-induced progenitors to an unbiased qRT-PCR-based chemical screen using annotated pathway modulating compounds to identify modulators that further enhance the expression of TTS and specification toward pacemaker lineage. […]

## cucurbitacin
  expression levels of nodal and atrial structural marker MYH6: enhances the expression levels
